Results: patent publication US9840478B2 (MERCK SHARP & DOHME CORP., priority 2013, dated 2017)

Tested on: HIV-1 (H9IIIB strain)
Assay: Cell-based HIV infection assay using a reporter (Cell-Based), MT4-GFP cells
Settings: Human immunodeficiency virus 1, MT4-GFP cells infected with HIV-1 H9IIIB; 50% normal human serum; mean of at least two independent experiments; read-out: Cell-based IP
Outline: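 MT4-GFP cells (HIV LTR-driven GFP) infected 24 h with HIV-1 H9IIIB at low MOI, then washed and plated with compounds in RPMI + 50% normal human serum, 0.4% DMSO final. Green cells counted at 24 and 48 h; R0 = 48 h/24 h ratio, inhibition normalized to DMSO and triple-drug control; IC50 from 4-parameter fit.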

SMILES	IC50 [nM]
COC(=O)N[C@H](C(=O)Nc1cccc(F)c1CC[C@H]1CNC[C@@H](C)N1S(=O)(=O)c1ccccc1)[C@@H](c1ccc(F)cc1)C1CCOCC1 [Example 103, (βR)-4-fluoro-N-(3-fluoro-2-{2-[(2S,6R)-6-methyl-1-(phenylsulfonyl)piperazin-2-yl]ethyl}phenyl)-Nα-(methoxycarbonyl)-β-(tetrahydro-2H-pyran-4-yl)-L-phenylalaninamide]	8.6
C[C@@H]1CNC[C@H](CCc2c(F)cccc2NC(=O)[C@@H](N)[C@@H](c2ccc(F)cc2)C2CCOCC2)N1S(=O)(=O)c1ccccc1 [Example 104, (βR)-4-fluoro-N-(3-fluoro-2-{2-[(2S,6R)-6-methyl-1-(phenylsulfonyl)piperazin-2-yl]ethyl}phenyl)-β-(tetrahydro-2H-pyran-4-yl)-L-phenylalaninamide]	37
C[C@H]1CNC[C@H](CCc2c(F)cncc2NC(=O)[C@@H](N)[C@@H](c2ccc(F)cc2)c2cc(F)cc(F)c2)N1S(=O)(=O)c1ccccc1 [Example 105, (βS)-β-(3,5-difluorophenyl)-4-fluoro-N-(5-fluoro-4-{2-[(2S,6S)-6-methyl-1-(phenylsulfonyl)piperazin-2-yl]ethyl}pyridin-3-yl)-L-phenylalaninamide]	19
C[C@H]1CNC[C@H](CCc2c(F)cccc2NC(=O)[C@@H](N)[C@@H](c2ccc(F)cc2)c2cc(F)cc(F)c2)N1S(=O)(=O)c1cccc(F)c1 [Example 106, (βS)-β-(3,5-difluorophenyl)-4-fluoro-N-[3-fluoro-2-(2-{(2S,6S)-1-[(3-fluorophenyl)sulfonyl]-6-methylpiperazin-2-yl}ethyl)phenyl]-L-phenylalaninamide]	30
COC(=O)N[C@H](C(=O)Nc1cccc(F)c1CC[C@H]1CNC[C@H](C)N1S(=O)(=O)c1cccc(F)c1)[C@@H](c1ccc(F)cc1)c1cc(F)cc(F)c1 [Example 107, (βS)-β-(3,5-difluorophenyl)-4-fluoro-N-[3-fluoro-2-(2-{(2S,6S)-1-[(3-fluorophenyl)sulfonyl]-6-methylpiperazin-2-yl}ethyl)phenyl]-Nα-(methoxycarbonyl)-L-phenylalaninamide]	150
C[C@H]1CNC[C@H](CCc2c(F)cccc2NC(=O)[C@@H](N)[C@@H](c2ccc(Cl)cc2)c2cccc(F)c2)N1S(C)(=O)=O [Example 108, (βS)-4-chloro-N-(3-fluoro-2-{2-[(2S,6S)-6-methyl-1-(methylsulfonyl)piperazin-2-yl]ethyl}phenyl)-β-(3-fluorophenyl)-L-phenylalaninamide]	32
CC(C)[C@H](c1ccc(Cl)cc1)[C@H](N)C(=O)Nc1cccc(F)c1CC[C@H]1CNC[C@H](C)N1S(=O)(=O)c1ccccc1 [Example 109, (βR)-4-chloro-N-(3-fluoro-2-{2-[(2S,6S)-6-methyl-1-(phenylsulfonyl)piperazin-2-yl]ethyl}phenyl)-β-(1-methylethyl)-L-phenylalaninamide]	65
CC(C)[C@H](c1ccc(Cl)cc1)[C@H](N)C(=O)Nc1cccc(F)c1CC[C@H]1CNC[C@@H](C)N1S(=O)(=O)c1ccccc1 [Example 110, (βR)-4-chloro-N-(3-fluoro-2-{2-[(2S,6R)-6-methyl-1-(phenylsulfonyl)piperazin-2-yl]ethyl}phenyl)-β-(1-methylethyl)-L-phenylalaninamide]	74
COC(=O)N[C@H](C(=O)Nc1cccc(F)c1CC[C@H]1CNC[C@H](C)N1S(=O)(=O)c1ccccc1)[C@@H](c1ccc(Cl)cc1)C(C)C [Example 111, (βR)-4-chloro-N-(3-fluoro-2-{2-[(2S,6S)-6-methyl-1-(phenylsulfonyl)piperazin-2-yl]ethyl}phenyl)-Nα-(methoxycarbonyl)-β-(1-methylethyl)-L-phenylalaninamide]	34
COC(=O)N[C@H](C(=O)Nc1cccc(F)c1CC[C@H]1CNC[C@@H](C)N1S(=O)(=O)c1ccccc1)[C@@H](c1ccc(Cl)cc1)C(C)C [Example 112, (βR)-4-chloro-N-(3-fluoro-2-{2-[(2S,6R)-6-methyl-1-(phenylsulfonyl)piperazin-2-yl]ethyl}phenyl)-Nα-(methoxycarbonyl)-β-(1-methylethyl)-L-phenylalaninamide]	19
C[C@H]1CNC[C@H](CCc2c(F)cncc2NC(=O)[C@@H](N)[C@@H](c2ccc(Cl)cc2)c2cccc(F)c2)N1S(=O)(=O)c1ccccc1 [Example 113, (βS)-β-(4-chlorophenyl)-3-fluoro-N-(5-fluoro-4-{2-[(2S,6S)-6-methyl-1-(phenylsulfonyl)piperazin-2-yl]ethyl}pyridin-3-yl)-L-phenylalaninamide]	25
C[C@H]1CNC[C@H](CCc2c(F)cccc2NC(=O)[C@@H](N)[C@@H](c2ccc(F)cc2)C2CCOCC2)N1S(=O)(=O)C1CC1 [Example 114, (βR)-N-(2-{2-[(2S,6S)-1-(cyclopropylsulfonyl)-6-methylpiperazin-2-yl]ethyl}-3-fluorophenyl)-4-fluoro-β-(tetrahydro-2H-pyran-4-yl)-L-phenylalaninamide]	100
COC(=O)N[C@H](C(=O)Nc1cccc(F)c1CC[C@H]1CNC[C@H](C)N1S(=O)(=O)C1CC1)[C@@H](c1ccc(F)cc1)C1CCOCC1 [Example 115, (βR)-N-(2-{2-[(2S,6S)-1-(cyclopropylsulfonyl)-6-methylpiperazin-2-yl]ethyl}-3-fluorophenyl)-4-fluoro-Nα-(methoxycarbonyl)-β-(tetrahydro-2H-pyran-4-yl)-L-phenylalaninamide]	45
C[C@@H]1CNC[C@H](CCc2c(F)cccc2NC(=O)[C@@H](N)[C@@H](c2ccc(Cl)cc2)C2CCOCC2)N1S(=O)(=O)c1ccccc1 [Example 116, (βR)-4-chloro-N-(3-fluoro-2-{2-[(2S,6R)-6-methyl-1-(phenylsulfonyl)piperazin-2-yl]ethyl}phenyl)-β-(tetrahydro-2H-pyran-4-yl)-L-phenylalaninamide]	24
COC(=O)N[C@H](C(=O)Nc1cccc(F)c1CC[C@H]1CNC[C@@H](C)N1S(=O)(=O)c1ccccc1)[C@@H](c1ccc(Cl)cc1)C1CCOCC1 [Example 117, (βR)-4-chloro-N-(3-fluoro-2-{2-[(2S,6R)-6-methyl-1-(phenylsulfonyl)piperazin-2-yl]ethyl}phenyl)-Nα-(methoxycarbonyl)-β-(tetrahydro-2H-pyran-4-yl)-L-phenylalaninamide]	9.3
COc1ccc([C@H](c2ccc(Cl)cc2)[C@H](N)C(=O)Nc2cccc(F)c2CC[C@H]2CNC[C@H](C)N2S(=O)(=O)c2ccccc2)cn1 [Example 118, (βS)-4-chloro-N-(3-fluoro-2-{2-[(2S,6S)-6-methyl-1-(phenylsulfonyl)piperazin-2-yl]ethyl}phenyl)-β-(6-methoxypyridin-3-yl)-L-phenylalaninamide]	12
COC(=O)N[C@H](C(=O)Nc1cccc(F)c1CC[C@H]1CNC[C@H](C)N1S(=O)(=O)c1ccccc1)[C@@H](c1ccc(Cl)cc1)c1ccc(OC)nc1 [Example 119, (βS)-4-chloro-N-(3-fluoro-2-{2-[(2S,6S)-6-methyl-1-(phenylsulfonyl)piperazin-2-yl]ethyl}phenyl)-Nα-(methoxycarbonyl)-β-(6-methoxypyridin-3-yl)-L-phenylalaninamide]	9.1
COC(=O)N[C@H](C(=O)Nc1cccc(F)c1CC[C@H]1CNC[C@@H](C)N1S(=O)(=O)c1ccccc1)[C@@H](c1ccc(Cl)cc1)c1ccc(OC)nc1 [Example 120, (βS)-4-chloro-N-(3-fluoro-2-{2-[(2S,6R)-6-methyl-1-(phenylsulfonyl)piperazin-2-yl]ethyl}phenyl)-Nα-(methoxycarbonyl)-β-(6-methoxypyridin-3-yl)-L-phenylalaninamide]	19
C[C@H]1CNC[C@H](CCc2c(F)cccc2NC(=O)[C@@H](N)[C@@H](c2ccc(Cl)cc2)C2CCOCC2)N1S(C)(=O)=O [Example 121, (βR)-4-chloro-N-(3-fluoro-2-{2-[(2S,6S)-6-methyl-1-(methylsulfonyl)piperazin-2-yl]ethyl}phenyl)-β-(tetrahydro-2H-pyran-4-yl)-L-phenylalaninamide]	72
CC(C)[C@H](c1ccc(Cl)cc1)[C@H](N)C(=O)Nc1cccc(F)c1CC[C@H]1CNC[C@H](C)N1S(C)(=O)=O [Example 122, (βR)-4-chloro-N-(3-fluoro-2-{2-[(2S,6S)-6-methyl-1-(methylsulfonyl)piperazin-2-yl]ethyl}phenyl)-β-(1-methylethyl)-L-phenylalaninamide]	360
COC(=O)N[C@H](C(=O)Nc1cccc(F)c1CC[C@H]1CNC[C@H](C)N1S(C)(=O)=O)[C@@H](c1ccc(Cl)cc1)C(C)C [Example 123, (βR)-4-chloro-N-(3-fluoro-2-{2-[(2S,6S)-6-methyl-1-(methylsulfonyl)piperazin-2-yl]ethyl}phenyl)-Nα-(methoxycarbonyl)-β-(1-methylethyl)-L-phenylalaninamide]	62
COc1ccc(S(=O)(=O)N2[C@@H](CCc3c(F)cccc3NC(=O)[C@@H](N)[C@@H](c3ccc(Cl)cc3)C(C)C)CNC[C@@H]2C)cc1 [Example 124, (βR)-4-chloro-N-[3-fluoro-2-(2-{(2S,6S)-1-[(4-methoxyphenyl)sulfonyl]-6-methylpiperazin-2-yl}ethyl)phenyl]-β-(1-methylethyl)-L-phenylalaninamide]	63
COC(=O)N[C@H](C(=O)Nc1cccc(F)c1CC[C@H]1CNC[C@H](C)N1S(=O)(=O)c1ccc(OC)cc1)[C@@H](c1ccc(Cl)cc1)C(C)C [Example 125, (βR)-4-chloro-N-[3-fluoro-2-(2-{(2S,6S)-1-[(4-methoxyphenyl)sulfonyl]-6-methylpiperazin-2-yl}ethyl)phenyl]-Nα-(methoxycarbonyl)-β-(1-methylethyl)-L-phenylalaninamide]	18
CC(C)[C@H](c1ccc(Cl)cc1)[C@H](N)C(=O)Nc1cncc(F)c1CC[C@H]1CNC[C@H](C)N1S(=O)(=O)c1ccccc1 [Example 126, (βR)-4-chloro-N-(5-fluoro-4-{2-[(2S,6S)-6-methyl-1-(phenylsulfonyl)piperazin-2-yl]ethyl}pyridin-3-yl)-β-(1-methylethyl)-L-phenylalaninamide]	16
